Measurements reported in PMC11852496, “A Modular Customizable Ligand-Conjugate (LC) System Targeting Ghrelin O-Acyltransferase” (Biomolecules, 2025).
Several values for one entry are separate records, joined by “and”; a condition that tells them apart may be missing. Identical values can stand only once. Like-named read-outs stand apart in the source and are kept apart here. Non-standard residues stand in square brackets, D forms with d. Residues, ends and D or L forms follow the SMILES beside them. *: point of attachment. X4 = CN1C(=C/C=C/C=C/C2=[N+](CCCCCC(=O)NCCCn3cc(COC[C@H]4CC[C@H](CN5C(=O)CC(*)C5=O)CC4)nn3)c3ccc(S(=O)(=O)[O-])cc3C2(C)C)C(C)(C)c2cc(S(=O)(=O)O)ccc21; X2 = N=c1ccc2c(-c3ccc(C(=O)NCCCn4cc(COC[C@H]5CC[C@H](CN6C(=O)CC(*)C6=O)CC5)nn4)cc3C(=O)O)c3ccc(N)c(S(=O)(=O)O)c3oc-2c1S(=O)(=O)O; X5 = COc1cc(/N=N/c2ccc(C)cc2[N+](=O)[O-])c(C)cc1/N=N/c1ccc(N(C)CCCC(=O)NCCn2cc(COC[C@H]3CC[C@H](CN4C(=O)CC(*)C4=O)CC3)nn2)cc1; X3 = O=C(NCCCn1cc(COC[C@H]2CC[C@H](CN3C(=O)CC(*)C3=O)CC2)nn1)c1ccc2c(c1)C(=O)OC21c2ccc(O)cc2Oc2cc(O)ccc21; X7 = C#CCOC[C@H]1CC[C@H](CN2C(=O)CC(*)C2=O)CC1; 1Nal = N[CH](Cc1cccc2ccccc12)C(=O)O; X1 = O=C1NC2CSC(CCCCC(=O)*)C2N1; PEG3 = NCCOCCOCCOCCC(=O)O; Dap = NC[CH](N)C(=O)O

Target: T1, hGOAT (human ghrelin O-acyltransferase) (Homo sapiens, UniProt Q96T53)
T1 construct: made in house; host or cells: Sf9 insect cells (membrane/microsomal fraction)
T1 sequence (Q96T53 1-435): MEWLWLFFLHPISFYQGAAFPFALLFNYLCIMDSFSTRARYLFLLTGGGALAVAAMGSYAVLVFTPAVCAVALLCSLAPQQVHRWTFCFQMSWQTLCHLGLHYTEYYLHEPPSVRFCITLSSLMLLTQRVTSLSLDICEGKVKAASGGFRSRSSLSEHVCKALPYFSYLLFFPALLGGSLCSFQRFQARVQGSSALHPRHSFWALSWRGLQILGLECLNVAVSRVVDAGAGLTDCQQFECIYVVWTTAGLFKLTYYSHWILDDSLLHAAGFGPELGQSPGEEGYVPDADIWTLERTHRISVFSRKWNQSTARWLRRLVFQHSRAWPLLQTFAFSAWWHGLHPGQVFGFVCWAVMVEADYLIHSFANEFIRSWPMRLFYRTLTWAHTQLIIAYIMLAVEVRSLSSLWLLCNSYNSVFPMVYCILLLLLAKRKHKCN
Test: GOAT ghrelin acylation (octanoylation) inhibition assay, membrane fraction of Sf9 cells expressing hGOAT, HPLC readout
Type: biochemical
Conditions: for IC50: average of three independent trials; for IC50 relative to parent ligand 5: fold change relative to ligand 5; for change in binding potency with PEG3 linker B compared to linker A: primed ligand (linker B) relative to unprimed ligand (linker A)
Protocol: The microsomal fraction containing hGOAT for the ligand-binding studies by IC50 determination was prepared according to published protocols. For the GOAT inhibition assay, serial dilutions of 0, 0.15, 0.5, 1, 5, 15, and 50 µM concentrations were prepared in 50% acetonitrile for each ligand used. The membrane fractions from the Sf9 cells expressing GOAT were first thawed on ice then passed through an 18-gauge needle 10 times to homogenize them. The assays were performed with approximately 30 µg of the membrane protein as determined through a Bradford assay. The standard reaction conditions contained 50 mM HEPES pH 7.0, 1 µM MAFP, 30 µg of membrane protein, and ultrapure water. The ligands were added to the reaction mixtures and incubated for 30 min at room temperature protected from light prior to the reaction initiation. The reactions were initiated by octanoyl CoA (300 µM final concentration) and GSSFLCAcdan (0.3 µM final concentration) in a total reaction volume of 50 µL. […] The reactions were stopped with 50 µL of 20% acetic acid in isopropanol. The excess membrane fraction was precipitated with 16.7 µL of 40% trichloroacetic acid (TCA) followed by a 1000× g centrifugation for 2 min. The supernatant was then analyzed via reverse-phase HPLC in 100 µL samples as previously described. The inhibition trials were run in triplicate, with the reported IC50 values representing the average of at least three trials. The IC50 values for all LCs are reported in Supplemental Table S2.
The assays were analyzed on reverse-phase HPLC (Zorbax Eclipse XDB column, 4.6 × 150 mm) using a solvent gradient from […] in aqueous 0.05% TFA over 5 min at a flow rate of 1 mL/min, followed by a gradient of […] in 0.05% TFA over 1 min, 100% acetonitrile for 5 min, and a gradient of 100% acetonitrile to 30% acetonitrile in 0.05% TFA for 5 min. The total time for each run was 16 min. The peptides were detected by the attached acrylodan label with the UV absorbance at 360 nm and fluorescence (λex = 360 nm, λem = 485 nm). The octanoylated peptide typically eluted at around 7.5 min, with the unreacted peptide eluting at around 2.5 min. Chemstation for LC (Agilent Technologies) was used for peak integration.
The peak integrations were used to determine the percent conversion in the presence of either the inhibitor (ligand, LC) or the vehicle (50% acetonitrile). The percent activity was calculated using Equation (1):(1) % peptide octanoylationa=fluorescence of octanoylated peptide/total peptide fluorescence,
IC50 values were determined by fitting Equation (2) to the plot of % activity against inhibitor concentration:(2) % activity=% vehicle1−Inhibitor/Inhibitor+IC50
[formula] Scheme 1 The GOAT inhibition assay for determining ligand binding. The octanoylation of a fluorescently labeled ghrelin-mimetic peptide substrate is inhibited by LC binding, with GOAT octanoylation activity and inhibition determined as described in the Section 2.

[1] = ± one standard deviation, read-out: IC50 against hGOAT

With `CC(C)CC(NC(=O)C(Cc1cccc2ccccc12)NC(=O)C(CN)NC(=O)C(CO)NC(=O)CN)C(=O)NC(CO)C(=O)N1CCCC1C(=O)NC(C(=O)NCCOCCOCCOCCC(=O)NC(CS)C(N)=O)C(C)O` (stereo not drawn) [Ligand 3] (H-GS[Dap][1Nal]LSPT[PEG3]C-NH2; configuration not given here) the IC50 [1] was 28.9 nM and 29 nM.
`C#CCOC[C@H]1CC[C@H](CN2C(=O)CC(SC[C@H](NC(=O)CCOCCOCCOCCNC(=O)[C@@H](NC(=O)[C@@H]3CCCN3C(=O)[C@H](CO)NC(=O)[C@H](CC(C)C)NC(=O)[C@H](Cc3cccc4ccccc34)NC(=O)[C@H](CN)NC(=O)[C@H](CO)NC(=O)CN)[C@@H](C)O)C(N)=O)C2=O)CC1` (stereo partly drawn) [Ligand 5, H-GS-Dap-Nal-1-LSPT-Mini-PEG3a-C-Linker] (H-GS[Dap][1Nal]LSPT[PEG3]C(X7)-NH2) showed an IC50 [1] of 13 ± 1 nM.
With `CC(C)C[C@H](NC(=O)[C@H](Cc1cccc2ccccc12)NC(=O)[C@H](CN)NC(=O)[C@H](CO)NC(=O)CN)C(=O)N[C@@H](CO)C(=O)N1CCC[C@H]1C(=O)N[C@H](C(=O)NCCOCCOCCOCCC(=O)N[C@@H](CCn1cc(COC[C@H]2CC[C@H](CN3C(=O)C=CC3=O)CC2)nn1)C(N)=O)[C@@H](C)O` [Ligand 6, H-GS-Dap-Nal-1-LSPT-Mini-PEG3a-AHA-Linker] the IC50 (apparent IC50, read-out: IC50 against hGOAT) was > 1000 nM and 1000 nM and the IC50 [1] was 1050 ± 79.5 nM.
With `CC(C)C[C@H](NC(=O)[C@H](Cc1cccc2ccccc12)NC(=O)[C@H](CN)NC(=O)[C@H](CO)NC(=O)CN)C(=O)N[C@@H](CO)C(=O)N1CCC[C@H]1C(=O)N[C@H](C(=O)NCCOCCOCCOCCC(=O)N[C@@H](CSC1CC(=O)N(C[C@H]2CC[C@H](COCc3cn(CCCNC(=O)c4ccc(-c5c6ccc(=N)c(S(=O)(=O)O)c-6oc6c(S(=O)(=O)O)c(N)ccc56)c(C(=O)O)c4)nn3)CC2)C1=O)C(N)=O)[C@@H](C)O` (stereo partly drawn) [Ligand 7, H-GS-Dap-Nal-1-LSPT-Mini-PEG3a-C-Linker-AF488azide] (H-GS[Dap][1Nal]LSPT[PEG3]C(X2)-NH2) the “IC50 relative to parent ligand 5” value was “six- to eight-fold higher”.
For `CC(C)C[C@H](NC(=O)[C@H](Cc1cccc2ccccc12)NC(=O)[C@H](CN)NC(=O)[C@H](CO)NC(=O)CN)C(=O)N[C@@H](CO)C(=O)N1CCC[C@H]1C(=O)N[C@H](C(=O)NCCOCCOCCOCCC(=O)N[C@@H](CSC1CC(=O)N(C[C@H]2CC[C@H](COCc3cn(CCCNC(=O)c4ccc5c(c4)C(=O)OC54c5ccc(O)cc5Oc5cc(O)ccc54)nn3)CC2)C1=O)C(N)=O)[C@@H](C)O` (stereo partly drawn) [Ligand 8, H-GS-Dap-Nal-1-LSPT-Mini-PEG3-C-Linker-FAM5azide] (H-GS[Dap][1Nal]LSPT[PEG3]C(X3)-NH2), the IC50 [1] was 73.8 ± 4.8 nM and the “IC50 relative to parent ligand 5” value was “six- to eight-fold higher”.
`CC(C)C[C@H](NC(=O)[C@H](Cc1cccc2ccccc12)NC(=O)[C@H](CN)NC(=O)[C@H](CO)NC(=O)CN)C(=O)N[C@@H](CO)C(=O)N1CCC[C@H]1C(=O)N[C@H](C(=O)NCCOCCOCCOCCC(=O)N[C@@H](CSC1CC(=O)N(C[C@H]2CC[C@H](COCc3cn(CCCNC(=O)CCCCC[N+]4=C(/C=C/C=C/C=C5N(C)c6ccc(S(=O)(=O)O)cc6C5(C)C)C(C)(C)c5cc(S(=O)(=O)[O-])ccc54)nn3)CC2)C1=O)C(N)=O)[C@@H](C)O` (stereo partly drawn) [Ligand 9, H-GS-Dap-Nal-1-LSPT-Mini-PEG3a-C-Linker-SulfoCy5azide] (H-GS[Dap][1Nal]LSPT[PEG3]C(X4)-NH2) was tested, and the IC50 [1] was 84.4 ± 11.5 nM and the “IC50 relative to parent ligand 5” value was “six- to eight-fold higher”.
`COc1cc(/N=N/c2ccc(C)cc2[N+](=O)[O-])c(C)cc1/N=N/c1ccc(N(C)CCCC(=O)NCCn2cc(COC[C@H]3CC[C@H](CN4C(=O)CC(SC[C@H](NC(=O)CCOCCOCCOCCNC(=O)[C@@H](NC(=O)[C@@H]5CCCN5C(=O)[C@H](CO)NC(=O)[C@H](CC(C)C)NC(=O)[C@H](Cc5cccc6ccccc56)NC(=O)[C@H](CN)NC(=O)[C@H](CO)NC(=O)CN)[C@@H](C)O)C(N)=O)C4=O)CC3)nn2)cc1` (stereo partly drawn) [Ligand 12, H-GS-Dap-Nal-1-LSPT-Mini-PEG3-C-Linker-AzoDye1azide] (H-GS[Dap][1Nal]LSPT[PEG3]C(X5)-NH2) showed an IC50 [1] of 5.9 ± 1.7 nM.
`CC(C)CC(NC(=O)C(Cc1cccc2ccccc12)NC(=O)C(CN)NC(=O)C(CO)NC(=O)CN)C(=O)NC(CO)C(=O)N1CCCC1C(=O)NC(C(=O)NCCOCCOCCOCCC(=O)NC(CCCCNC(=O)CCCCC1SCC2NC(=O)NC21)C(N)=O)C(C)O` (stereo not drawn) [Ligand 13] (H-GS[Dap][1Nal]LSPT[PEG3]K(X1)-NH2; configuration not given here) showed an IC50 [1] of 51.8 ± 5.7 nM.
With `COc1cc2cc(c1Cl)N(C)C(=O)C[C@H](OC(=O)[C@H](C)N(C)C(=O)CCSC1CC(=O)N(C[C@H]3CC[C@H](COCc4cn(CC[C@H](NC(=O)CCOCCOCCOCCNC(=O)[C@@H](NC(=O)[C@@H]5CCCN5C(=O)[C@H](CO)NC(=O)[C@H](CC(C)C)NC(=O)[C@H](Cc5cccc6ccccc56)NC(=O)[C@H](CN)NC(=O)[C@H](CO)NC(=O)CN)[C@@H](C)O)C(N)=O)nn4)CC3)C1=O)[C@]1(C)O[C@H]1[C@H](C)[C@@H]1C[C@@](O)(NC(=O)O1)[C@H](OC)/C=C/C=C(\C)C2` (stereo partly drawn) [Ligand 14, H-GS-Dap-Nal-1-LSPT-Mini-PEG3a-AHA-Linker-Mertansine] the IC50 (IC50 against hGOAT, ± one standard deviation) was 18.8 nM and ~20 nM.
For `CC(C)C[C@H](NC(=O)[C@H](Cc1cccc2ccccc12)NC(=O)[C@H](CN)NC(=O)[C@H](CO)NC(=O)CN)C(=O)N[C@@H](CO)C(=O)N1CCC[C@H]1C(=O)N[C@H](C(=O)NCCOCCOCCOCCC(=O)N[C@@H](CSC1CC(=O)N(CCNC(=O)CCCCC[N+]2=C(/C=C/C=C/C=C3N(C)c4ccc(S(=O)(=O)O)cc4C3(C)C)C(C)(C)c3cc(S(=O)(=O)[O-])ccc32)C1=O)C(N)=O)[C@@H](C)O` (stereo partly drawn) [Ligand 16], the IC50 [1] was 56.8 ± 8.6 nM.
In the case of `COc1cc(/N=N/c2ccc(C)cc2[N+](=O)[O-])c(C)cc1/N=N/c1ccc(N(C)CCCC(=O)NCc2cn(CC[C@H](NC(=O)CCOCCOCCOCCNC(=O)[C@@H](NC(=O)[C@@H]3CCCN3C(=O)[C@H](CO)NC(=O)[C@H](CC(C)C)NC(=O)[C@H](Cc3cccc4ccccc34)NC(=O)[C@H](CN)NC(=O)[C@H](CO)NC(=O)CN)[C@@H](C)O)C(N)=O)nn2)cc1` [Ligand 17, H-GS-Dap-Nal-1-LSPT-Mini-PEG3a-AHA-AzoDye1alkyne], the IC50 [1] is reported as 3.9 ± 0.4 nM.
In the case of “H-GS-Dap-Nal-1-LSPT-Mini-PEG3a-C-Linker-TideQuencher2azide [Ligand 11]”, the IC50 [1] is reported as 25.7 ± 6.2 nM and the “IC50 relative to parent ligand 5” value is reported as “approximately two-fold higher”.
In the case of “H-GS-Dap-Nal-1-LSPT-Mini-PEG3b-C-NH2 [Ligand 3’]”, the “change in binding potency with PEG3 linker B compared to linker A” value is reported as “approximately four-fold drop”.
“H-GS-Dap-Nal-1-LSPT-Mini-PEG3b-C-SulfoCy5maleimide [Ligand 16’]” was tested, and the “change in binding potency with PEG3 linker B compared to linker A” value was “approximately two-fold increase”.
